Results: patent publication US8513271B2, “Pyrimidine compounds as delta opioid receptor modulators” (Janssen Pharmaceutica, NV, priority 2009, dated 2013)
Read-outs that look alike come from different tables or passages of the source.

What was measured:
delta opioid receptor [1] = molecular target: T1, delta opioid receptor (Rattus norvegicus, UniProt P33533); assay: Rat brain delta opioid receptor binding assay; details: rat forebrain, [3H]naltrindole ligand
T1 construct: the forebrains were homogenized in Tris buffer in a Teflon®-glass homogenizer; from tissue; host or cells: forebrain of male Wistar rats, particulate (membrane) preparation
T1 sequence (P33533 whole entry): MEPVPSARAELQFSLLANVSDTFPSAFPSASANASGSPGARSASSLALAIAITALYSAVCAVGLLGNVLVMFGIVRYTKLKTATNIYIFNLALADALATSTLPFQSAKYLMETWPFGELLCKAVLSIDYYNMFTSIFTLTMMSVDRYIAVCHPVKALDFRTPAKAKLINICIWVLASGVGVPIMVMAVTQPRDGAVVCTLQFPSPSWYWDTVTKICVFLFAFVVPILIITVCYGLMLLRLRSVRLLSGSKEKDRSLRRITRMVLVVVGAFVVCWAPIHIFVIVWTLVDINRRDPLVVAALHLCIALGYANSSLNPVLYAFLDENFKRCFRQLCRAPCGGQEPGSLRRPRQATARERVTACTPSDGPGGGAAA

mu opioid receptor = molecular target: T2, mu opioid receptor (Rattus norvegicus, UniProt P33535); assay: Rat brain mu opioid receptor binding assay; details: rat forebrain, [3H]DAMGO ligand
T2 construct: the forebrains were homogenized in Tris buffer in a Teflon®-glass homogenizer; from tissue; host or cells: forebrain of male Wistar rats, particulate (membrane) preparation
T2 sequence (P33535 whole entry): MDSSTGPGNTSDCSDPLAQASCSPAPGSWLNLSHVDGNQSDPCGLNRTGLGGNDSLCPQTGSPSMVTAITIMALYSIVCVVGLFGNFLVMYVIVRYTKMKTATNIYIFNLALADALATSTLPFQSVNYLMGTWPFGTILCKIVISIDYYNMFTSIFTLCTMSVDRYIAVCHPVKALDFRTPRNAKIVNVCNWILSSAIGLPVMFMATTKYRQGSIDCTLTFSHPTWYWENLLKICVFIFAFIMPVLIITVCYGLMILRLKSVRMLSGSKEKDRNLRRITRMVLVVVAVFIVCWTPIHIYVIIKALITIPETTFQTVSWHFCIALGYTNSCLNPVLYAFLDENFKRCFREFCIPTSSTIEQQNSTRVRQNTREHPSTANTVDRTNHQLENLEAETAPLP

delta opioid receptor [2] = molecular target: T3, delta opioid receptor (Mus musculus, UniProt P32300); assay: [35S]GTPγS binding assay in NG108-15 cell membranes (delta opioid functional assay), 200 nM screen; assay type: biochemical; details: NG108-15 cell membranes; for EC50: averages if tested more than once; for GTPγS δ-opioid receptor Rel Efficacy: relative efficacy from dose response
T3 construct: NG108-15 cell membranes were purchased from Applied Cell Sciences (Rockville, Md.); host or cells: NG108-15 cell membranes
T3 sequence (P32300 whole entry): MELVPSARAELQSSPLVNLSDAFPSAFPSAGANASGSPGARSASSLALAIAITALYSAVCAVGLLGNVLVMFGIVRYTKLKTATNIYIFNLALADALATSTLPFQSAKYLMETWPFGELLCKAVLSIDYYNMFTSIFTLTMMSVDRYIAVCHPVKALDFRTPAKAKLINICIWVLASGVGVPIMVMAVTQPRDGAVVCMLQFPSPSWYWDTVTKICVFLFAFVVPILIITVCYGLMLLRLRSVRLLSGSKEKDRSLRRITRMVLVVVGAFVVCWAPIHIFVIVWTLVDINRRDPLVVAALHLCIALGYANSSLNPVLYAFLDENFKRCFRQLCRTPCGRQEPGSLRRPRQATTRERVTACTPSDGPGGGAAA

[3] = read-out: δ-binding (Naltrindole ligand) Ki
[4] = δ-binding (Naltrindole ligand) Ki
[5] = read-out: GTPγS δ-opioid receptor EC50

Row | Structure (SMILES) | Ki (delta opioid receptor [1]; [3]) | Ki (delta opioid receptor [1]; [4]) | EC50 (delta opioid receptor [2]; [5]) | also measured
1 | COc1ccc(Oc2nc(-c3c(C)noc3C)ncc2NC[C@@H]2CCCN2)cc1 [Cpd 62] | 544 nM | – | – | Ki (mu opioid receptor; read-out: μ-binding Ki): 1920 nM
2 | COc1ccc(Oc2nc(-c3ccc(-c4ccccc4)cc3)ncc2NC[C@@H]2CCCN2)cc1 [Cpd 19] | 201 nM | – | – | Ki (mu opioid receptor; read-out: μ-binding Ki): 8080 nM
3 | COc1ccc(Oc2nc(-c3cnc(SC)nc3)ncc2NC[C@@H]2CCCN2)cc1 [Cpd 52] | – | 0.4 nM | – | Ki (mu opioid receptor; read-out: μ-binding Ki): 539 nM
4 | COc1ccc(Oc2nc(-c3noc(=O)[nH]3)ncc2NC[C@@H]2CCCN2)cc1 [Cpd 35, 3-{4-(4-Methoxy-phenoxy)-5-[(pyrrolidin-2-(S)-ylmethyl)-amino]-pyrimidin-2-yl}-4H-[1,2,4]oxadiazol-5-one] | 184 nM | – | – | Ki (mu opioid receptor; read-out: μ-binding Ki): 184 nM
5 | COc1ccc(Oc2nc(-c3ccc4[nH]ccc4c3)ncc2NC[C@@H]2CCCN2)cc1 [Cpd 34] | – | 15 nM | – | Ki (mu opioid receptor; μ-binding Ki): 15 nM
6 | COc1ccc(Oc2nc(-c3cnc(O)nc3O)ncc2NC[C@@H]2CCCN2)cc1 [Cpd 27] | 2570 nM | – | – | Ki (mu opioid receptor; read-out: μ-binding Ki): 15500 nM
7 | COc1cccc(Oc2nc(-c3cccnc3)ncc2NC[C@@H]2CCCN2)c1 [Cpd 100] | – | 33 nM | 1.62 µM | –
8 | Fc1cncc(-c2ncc(NC[C@@H]3CCCN3)c(Oc3ccc(OC(F)F)cc3)n2)c1 [Cpd 112] | 6 nM | – | 0.33 µM | GTPγS δ-opioid receptor Rel Efficacy (delta opioid receptor [2]): 1.082
9 | COc1ccc(Oc2nc(-c3cncnc3)ncc2NCC2CNCCO2)cc1 (centres unmarked) [Cpd 277] | 32 nM | – | 1.09 µM | GTPγS δ-opioid receptor Rel Efficacy (delta opioid receptor [2]): 1.012
10 | COc1ccc(Oc2nc(-c3cncc(C#N)c3)ncc2NCC2CNCCO2)cc1 (centres unmarked) [Cpd 275] | – | 46 nM | 0.922 µM | –
11 | COc1ccc(Oc2nc(-c3cncnc3)ncc2NC[C@H]2CCCC[C@@H]2N)cc1 [Cpd 300] | 21 nM | – | 1.05 µM | GTPγS δ-opioid receptor Rel Efficacy (delta opioid receptor [2]): 0.968
12 | COc1ccc(Oc2nc(-c3cncnc3)ncc2NC[C@@H]2CCCN2)c(F)c1F [Cpd 103] | – | 11 nM | 0.311 µM | –
13 | COc1c(F)cc(Oc2nc(-c3cncc(C#N)c3)ncc2NC[C@@H]2CCCN2)cc1F [Cpd 96] | – | 35 nM | 0.749 µM | –
14 | COc1ccc(Oc2nc(-c3cncc(C#N)c3)ncc2NC[C@H](C)N)cc1 [Cpd 292] | – | 2 nM | 0.363 µM | –
15 | COc1ccc(Oc2nc(-c3cncc(F)c3)ncc2NC[C@@H]2CCCN2)c(F)c1F [Cpd 102] | – | 3 nM | 0.255 µM | –
16 | COc1c(F)cc(Oc2nc(-c3cncnc3)ncc2NC[C@@H]2CCCN2)cc1F [Cpd 97] | – | 39 nM | 7.12 µM | –
17 | COc1ccc(Oc2nc(-c3cncc(C#N)c3)ncc2NC2CCC(N)CC2)cc1 (centres unmarked) [Cpd 298] | – | 4 nM | – | EC50 (delta opioid receptor [2]; GTPγS δ-opioid receptor EC50 (μM)): 0.087 µM; GTPγS δ-opioid receptor Rel Efficacy (delta opioid receptor [2]): 1.012
18 | COc1ccc(Oc2nc(-c3ccc(C#N)nc3)ncc2NC[C@@H]2CCCN2)cc1 [Cpd 95] | – | 11 nM | 0.708 µM | –
19 | Cc1nc2ccc(Oc3nc(-c4cncc(C#N)c4)ncc3NC[C@@H]3CCCN3)cc2s1 [Cpd 88] | 14 nM | – | 0.478 µM | GTPγS δ-opioid receptor Rel Efficacy (delta opioid receptor [2]): 0.538
20 | COc1ccc(Oc2nc(-c3cncc(C#N)c3)ncc2NC[C@H]2COCCN2)cc1 [Cpd 280] | 6 nM | – | 0.181 µM | GTPγS δ-opioid receptor Rel Efficacy (delta opioid receptor [2]): 0.998
21 | COc1cccc(Oc2nc(-c3cncnc3)ncc2NC[C@@H]2CCCN2)c1 [Cpd 99] | – | 59 nM | 0.939 µM | –
22 | CCCOc1ccc(Oc2nc(-c3cncc(F)c3)ncc2NC[C@@H]2CCCN2)cc1 [Cpd 115] | – | 52 nM | 2.71 µM | –
23 | COc1ccc(Oc2nc(-c3cncnc3)ncc2NC[C@@H]2C[C@H](F)CN2)cc1 [Cpd 89] | – | 10 nM | 1.31 µM | –
24 | COc1ccc(Oc2nc(-c3cncc(C#N)c3)ncc2NCC2COCCN2)cc1 (racemic) [Cpd 279] | 5 nM | – | 0.17 µM | GTPγS δ-opioid receptor Rel Efficacy (delta opioid receptor [2]): 1.004
25 | FC(F)Oc1ccc(Oc2nc(-c3cncnc3)ncc2NC[C@@H]2CCCN2)cc1 [Cpd 111] | – | 9 nM | 0.491 µM | –
26 | CCCOc1ccc(Oc2nc(-c3cncnc3)ncc2NC[C@@H]2CCCN2)cc1 [Cpd 114] | – | 8 nM | 0.306 µM | –
